Values of other authors in patent US7358271B2, “Sulpiride pharmaceutical compositions” (Williamsburg Holdings LLC, priority 2003, dated 2008).
Like-named read-outs stand apart in the source and are kept apart here.

Columns and labels:
[1] = compared with physiological pH
[2] = oral formulations
[3] = healthy volunteers, oral

pKa [1]: lower than physiological pH
absorption in the gastrointestinal tract [2]: ~30%
bioavailability ([3]; after food): 27%
bioavailability ([3]; without food): 20%
Compound: CCN1CCCC1CNC(=O)c1cc(S(N)(=O)=O)ccc1OC (stereo not shown) [sulpiride, N-(1-Ethyl-pyrrolidin-2-ylmethyl)-2-methoxy-5-sulfamoyl-benzamide]
